≈ marks a conversion by molar mass, not a printed value. Read-outs that look alike come from different tables or passages of the source.

We go through four molecules from patent US11952610B2, “Digital microbiology” (priority 2016, dated 2024).

The test system of one data set is bacteria or yeast. As to the kind of experiment: Turbidity of a culture over time in the presence and absence of PI. The format is cell-based. As to conditions: presence vs absence of PI. On the procedure:
FIGS. 13A and 13B are a sample of SA+PI without FOX after 6 h of incubation. FIGS. 14A-14C are SA+PI+0.25 mg/L FOX after 6 h of incubation. FIGS. 15A-15C are SA+PI+0.5 mg/L FOX after 6 h of incubation. FIGS. 16A-16C are SA+PI+4 mg/L FOX after 6 h of incubation. PI is excluded from viable cells and penetrates the cell membranes of dead or dying cells. […] Intercalating agents are considered toxic for cell growth because they react with DNA, blocking the replication of the cells.

The subject of data set [1] is Aspergillus restrictus CECT 20807. The data set is described as follows: Inhibition of mold growth outside the droplet aqueous phase, antifungal in oil phase. It is filed as cell-based. As to conditions: YCG broth.
Data set [2] relates to Fusarium graminearum DSM 1096. The format is cell-based. As to conditions: 100 mg/L in the oil phase, YCG broth, 48 hours.
Data set [3] has as its system Penicillium hirsutum ATCC 16025. The data set is described as follows: Inhibition of mold growth outside the droplet aqueous phase, antifungal in oil phase. The format is cell-based. As to conditions: 80 mg/L in the oil phase, YCG broth, 24 hours.
In data set [4] the test system is Erotium rubrum CECT 20807. The data set is described as above. It is filed as cell-based. On the procedure: (§1) Usual foodborne mold strains were grown until the sporulation state (usually for 5 to 7 days) on the appropriate culture medium at 28° C. Spores were then scraped into 0.05% Tween 80 sterile solution. The collected suspensions were filtered on several layers of gauze compressed to eliminate most of the hyphae and mycelium fragments. When necessary, the suspensions were kept under stirring in the dark and at room temperature before the filtration step to ensure optimal spore release from the fungal structures. The spore concentration was determined in a hemocytometer chamber and/or by plating on agar Petri plates.
(§2) The suspensions were then centrifuged for 5 minutes at 10.000 rpm and the supernatants discarded. The pellets were resuspended with the appropriate volume of YGC broth containing 30% of glycerol and the aliquots were stored at −20° C. for up to 6 months.
(§3) Aliquots were thawed at room temperature and washed once in YGC broth to remove glycerol. The spores were then diluted to the concentration of 10^5 spores/mL in YGC broth containing 5% of Pluronic F68 surfactant.
(§4) Dicloran stock solution was prepared at 40 mg/mL in acetone. The stock solution was then diluted to produce working solutions according to table below.
(§5) A volume of 10 μL of the appropriate working solution was then added to 2 mL of Oil for Eva Green to reach the targeted final concentrations (0.5% v/v) (see the table below).
(§6) For droplet generation using the QX200™ Droplet generator, the ‘sample’ and ‘oil’ wells of a DG8 cartridge were respectively filled with […], of the prepared spore suspension (with or without CFDA) and 70 μL of the Oil for Eva Green (with or without Dicloran). After the generation process, the droplet emulsions (30-35 μL/well) were transferred to a 96-well Eppendorf plate and placed at 28° C. for 24 to 48 hours.

For data set [5], the system named is usual foodborne mold strains. The data set is described as above. As to conditions: 40 to 100 mg/L in the oil for EvaGreen, 28° C., 24 to 48 hours. The format is cell-based. As for the experimental part:
as §1, §2, §3, §4, §5, §6

Data set [6] has as its system Mucor racemosus CECT 20821. The description is as above. It is filed as cell-based. The note with it: YCG broth, 48 hours. On the procedure: as §1, §2, §3, §4, §5, §6
The test system of data set [7] is S. aureus ATCC®29213™. As to the kind of experiment: Antimicrobial susceptibility testing in water-in-oil droplets, microscope reading. It is filed as cell-based, Staphylococcus aureus. As for the experimental part: (§7) (at 30° C. for the C. albicans).
Data set [8] deals with E. faecalis ATCC®29212™. Described as above. It is filed as cell-based, Enterococcus faecalis. As for the experimental part:
as §7

For data set [9], the system named is S. aureus ATCC®29213™. The note with it: cited from earlier work.
Data set [10] concerns E. faecalis ATCC®29212™. As to conditions: cited from earlier work.
Data set [11] concerns S. aureus ATCC®43300™. As to conditions: cited from earlier work.
Data set [12] has as its system S. aureus ATCC®43300™. As to the kind of experiment: Antimicrobial susceptibility testing in water-in-oil droplets, strain with or without induction of resistance. As to conditions: for MIC: Staphylococcus aureus.
Protocol: They comprised Escherichia coli (ATCC®25922™), Staphylococcus aureus (ATCC®29212™), Enterococcus faecalis (ATCC®29212™) and Candida albicans (ATCC®24433™). […] This strain is known to carry an heterogeneous resistance phenotype was also used with or without induction with cephalosporins.
Each strain was stored as −80° C. frozen stock. Except when indicated, after overnight cultures in Trypto-casein-soy broth (TCS; Bio-Rad, Marnes 1a Coquette, France), all bacterial strains were started from the same adjusted turbidity which was equivalent to 1:100 of a 0.5 McFarland in TCS. For the Candida albicans, the starting turbidity was equivalent to a 1:10 of a 0.1 McFarland.
Droplets were prepared according to the manufacturer instructions (Bio-Rad) using QX200™ Droplet Generation Oil for EvaGreen (+surfactant) with the mixing parameters adjusted for sample volume and approximate number of microorganisms. Turbidity adjusted cultures were diluted in aqueous-phase reagents with a known concentration of antibiotic or antifungal agents in a 1:1 ratio of TCS culture to aqueous phase reagents (v/v, 10 μL/10 μL).
As soon as the droplets were prepared, the cartridges, protected by an adhesive film, were directly incubated at 37° C. (at 30° C. for the C. albicans).
After 4 and 6 hours of incubation, droplets were pipetted and introduced into cell counting slides (Bio-Rad). The microorganisms were then observed in the droplets using a microscope (objective 100× or 400×). The approximate counts of droplets carrying microorganisms as their growth inside the droplets were reported.
The minimal inhibitory concentration (MIC) was determined as the lowest concentration of an antimicrobial agent that prevents visible growth of a microorganism (i.e. a total absence of bacteria or a total absence of fungal growth observable in droplets using the microscope).
The subject of the next data set is MRSA ATCC BAA 2312. The data set is described as follows: Droplets with labeled anti-PBP2a antibody, BSA +/- cefoxitin: growth and labeling. It is filed as cell-based, Staphylococcus aureus. As to conditions: 3 h at 37° C. On the procedure: In another experiment, an anti-PBP2a antibody (Biosource clone M0071933) that recognizes PBP2a indicative of the resistance against methicillin in Staphylococcus aureus (SA) was labeled using Kit Lynx LNK174PETR (Abd Serotec). […] After incubation at 37° C. for 3 hours, the samples were read using the ZOE™ Fluorescent Cell Imager (Bio-Rad Laboratories). The tables below show growth (visible) and labeling (fluorescence) obtained for the tested strains of MSSA and MRSA.

`CC[N+](C)(CC)CCC[n+]1c(-c2ccccc2)c2cc(N)ccc2c2ccc(N)cc21.[I-].[I-]` [PI, propidium iodide]: in the data set on bacteria or yeast, the “Impact on growth of bacteria or yeast” value is recorded as “only a limited impact”.

With `Nc1c(Cl)cc([N+](=O)[O-])cc1Cl` [dicloran, 2,6-dichloro-4-nitroaniline], the “Mold growth outside the aqueous phase” value in data set [1] (80 mg/L in the oil phase, 24 hours) is recorded as “inhibition of mold growth outside the aqueous phase”; in data set [1] (100 mg/L in the oil phase, 48 hours), “inhibition of mold growth outside the aqueous phase”; in data set [2] it was “inhibition of mold growth outside the aqueous phase”; in data set [3], “inhibition of mold growth outside the aqueous phase”; in data set [4] (60 mg/L in the oil phase, YCG broth, 24 hours), “inhibition of mold growth outside the aqueous phase”; in data set [4] (80 mg/L in the oil phase, 5,6 carboxyfluorescein diacetate (25 mg/L) in the broth), “inhibition of Erotium rubrum CECT 20807 growth outside the aqueous phase”. Further, the “Mold growth outside the aqueous phase” value in data set [4] (80 mg/L in the oil phase, YCG broth, 48 hours) is on record as “inhibition of mold growth outside the aqueous phase”; in [6] (40 mg/L in the oil phase), “inhibition of mold growth outside the aqueous phase”; in [6] (60 mg/L in the oil phase) it was “inhibition of mold growth outside the aqueous phase”. For the same molecule, in data set [5], the “Hyphae spreading and mold growth outside the droplet” value is “the hyphae spreading was inhibited and mold growth was confined within the droplet”.

Regarding `CN[C@H](CC(C)C)C(=O)N[C@H]1C(=O)N[C@@H](CC(N)=O)C(=O)N[C@H]2C(=O)N[C@H]3C(=O)N[C@H](C(=O)N[C@H](C(=O)O)c4cc(O)cc(O)c4-c4cc3ccc4O)[C@H](O)c3ccc(c(Cl)c3)Oc3cc2cc(c3O[C@@H]2O[C@H](CO)[C@@H](O)[C@H](O)[C@H]2O[C@H]2C[C@](C)(N)[C@H](O)[C@H](C)O2)Oc2ccc(cc2Cl)[C@H]1O` [Vancomycin], the “Growth in % of droplets” value is reported as 25-50% of droplets in the data set with S. aureus ATCC®29213™ [7] (0.25 mg/L, reading time 4 h); ~50% of the droplets in the data set on S. aureus ATCC®29213™ [7] (0.25 mg/L, reading time 6 h); ~10% of droplets with S. aureus ATCC®29213™ [7] (0.5 mg/L, reading time 6 h); “Growth in 25-50%” in the data set with E. faecalis ATCC®29212™ [8] (0.25 mg/L, reading time 4 h); “Growth in 20-50%” with E. faecalis ATCC®29212™ [8] (0.25 mg/L, reading time 6 h); “Growth in 25-30%” with E. faecalis ATCC®29212™ [8] (0.5 mg/L, reading time 4 h). Further, the “Growth in % of droplets” value in the data set on E. faecalis ATCC®29212™ [8] (0.5 mg/L, reading time 6 h) is ~30% of droplets; in the data set with E. faecalis ATCC®29212™ [8] (1 mg/L, reading time 6 h), “Growth in 20-30%”. Besides, the “Growth in droplets (observation in words)” value (“Growth in droplets” for short) is on record as 1 droplet with cells in the data set with S. aureus ATCC®29213™ [7] (0.5 mg/L, reading time 4 h); “No growth” with S. aureus ATCC®29213™ [7] (1 mg/L, reading time 6 h); “Limited growth in” in the data set with E. faecalis ATCC®29212™ [8] (1 mg/L, reading time 4 h); “No growth” in the data set on E. faecalis ATCC®29212™ [8] (2 mg/L, reading time 4 h); “No growth” with E. faecalis ATCC®29212™ [8] (2 mg/L, reading time 6 h). Moreover, the figures for the “Expected MIC (CLSI)” value in the data set on S. aureus ATCC®29213™ [9] and in the data set with E. faecalis ATCC®29212™ [10] were 0.25 to 1 µg/mL and 1 to 4 µg/mL, respectively.

As to `CO[C@@]1(NC(=O)Cc2cccs2)C(=O)N2C(C(=O)O)=C(COC(N)=O)CS[C@@H]21` [Cefoxitin], the “Expected MIC (JCM)” value in the data set with S. aureus ATCC®43300™ [11] was 16 to 32 µg/mL. The “Growth in % of droplets” value with S. aureus ATCC®29213™ [7] (0.5 mg/L, reading time 4 h) is 20-30% of droplets; with S. aureus ATCC®29213™ [7] (1 mg/L, reading time 4 h), ~20% of droplets; in the data set on S. aureus ATCC®29213™ [7] (1 mg/L, reading time 6 h) it was “Growth in <50% of”. In addition, the “Growth in droplets” value in the data set on S. aureus ATCC®29213™ [7] (2 mg/L, reading time 4 h) is reported as “No growth”; in the data set with S. aureus ATCC®29213™ [7] (2 mg/L, reading time 6 h), “No growth”; in the data set with S. aureus ATCC®43300™ [12] (4 mg/L, 4 h w/o induction) it was “No growth”; with S. aureus ATCC®43300™ [12] (4 mg/L, 4 h with induction), “Limited growth”; in the data set with S. aureus ATCC®43300™ [12] (4 mg/L, 6 h w/o induction) it was “Limited growth (few”; in the data set on S. aureus ATCC®43300™ [12] (4 mg/L, 6 h with induction), “Limited growth”. Also, the “Growth in droplets” value in the data set with S. aureus ATCC®43300™ [12] (8 mg/L, 4 h with induction) is “Limited growth in few”; in the data set on S. aureus ATCC®43300™ [12] (8 mg/L, 6 h w/o induction), “No growth”; in the data set with S. aureus ATCC®43300™ [12] (8 mg/L, 6 h with induction), 1 droplet with cells; in the data set with S. aureus ATCC®43300™ [12] (16 mg/L, 4 h with induction), “Very limited growth”; in the data set on S. aureus ATCC®43300™ [12] (16 mg/L, 6 h with induction) it was “No growth”; in the data set with S. aureus ATCC®43300™ [12] (32 mg/L, 4 h with induction) it was “No growth”. In addition, the MIC in the data set with S. aureus ATCC®29213™ [7] (Staphylococcus aureus, ATCC29213, droplets at 37° C., read after 4 and 6 h, read-out: Observed MIC) is 2 µg/mL (≈ 4.68 µM); with S. aureus ATCC®43300™ [12] (ATCC43300, read-out: Observed MIC, using non induced strain), 2 to 4 µg/mL (≈ 4.68 to 9.36 µM); in the data set with S. aureus ATCC®43300™ [12] (ATCC43300, read-out: Observed MIC, with induced strain), 16 to 32 µg/mL (≈ 37.4 to 74.9 µM). In the data set on S. aureus ATCC®29213™ [9], the “Expected MIC (CLSI)” value is 1 to 4 µg/mL. Besides, the “Growth (visible)” value in the data set on MRSA ATCC BAA 2312 (BSA 0 + FOX 2 mg/L) was “Growth +<”; in the data set with MRSA ATCC BAA 2312 (BSA 2.5% + FOX 2 mg/L), “Growth +>”.

What is called MIC is the least concentration at which growth counts as inhibited.
